From PubChem BioAssay (NCI)
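Method: 48-hour compound exposure of cells in 96-well plates, five concentrations, linear interpolation of endpoints. Definition used: TGI = concentration required for complete inhibition of growth.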

Columns and labels:
Assay in all cases: NCI-60 cell line screen, 48 h
SF-539 CNS = test system: SF-539 CNS
SW-620 colon = test system: SW-620 colon
A498 renal = test system: A498 renal
TK-10 renal = test system: TK-10 renal
MOLT-4 leukemia = test system: MOLT-4 leukemia
COLO 205 colon = test system: COLO 205 colon
T-47D breast = test system: T-47D breast
HT29 colon = test system: HT29 colon
HCT-116 colon = test system: HCT-116 colon
OVCAR-3 ovarian = test system: OVCAR-3 ovarian
BT-549 breast = test system: BT-549 breast
SF-295 CNS = test system: SF-295 CNS
LOX IMVI melanoma = test system: LOX IMVI melanoma
SN12C renal = test system: SN12C renal
SK-OV-3 ovarian = test system: SK-OV-3 ovarian
UO-31 renal = test system: UO-31 renal
RXF 393 renal = test system: RXF 393 renal
UACC-257 melanoma = test system: UACC-257 melanoma
SNB-19 CNS = test system: SNB-19 CNS
NCI-H226 lung = test system: NCI-H226 lung
786-0 renal = test system: 786-0 renal
HL-60(TB) leukemia = test system: HL-60(TB) leukemia
KM12 colon = test system: KM12 colon
MDA-MB-435 = test system: MDA-MB-435
MCF7 breast = test system: MCF7 breast
HOP-62 NSCLC = test system: HOP-62 NSCLC
IGROV1 ovarian = test system: IGROV1 ovarian
NCI-H460 lung = test system: NCI-H460 lung
CAKI-1 renal = test system: CAKI-1 renal
HCC-2998 colon = test system: HCC-2998 colon
NCI-H23 lung = test system: NCI-H23 lung
SK-MEL-28 melanoma = test system: SK-MEL-28 melanoma
SK-MEL-2 melanoma = test system: SK-MEL-2 melanoma
HCT-15 colon = test system: HCT-15 colon
SF-268 CNS = test system: SF-268 CNS
DU-145 prostate = test system: DU-145 prostate
OVCAR-4 ovarian = test system: OVCAR-4 ovarian
MDA-MB-231 breast = test system: MDA-MB-231 breast
U251 CNS = test system: U251 CNS
MDA-N = test system: MDA-N
SK-MEL-5 melanoma = test system: SK-MEL-5 melanoma
HOP-92 NSCLC = test system: HOP-92 NSCLC
EKVX NSCLC = test system: EKVX NSCLC
SNB-75 CNS = test system: SNB-75 CNS
A549 NSCLC = test system: A549 NSCLC
OVCAR-8 ovarian = test system: OVCAR-8 ovarian
NCI/ADR-RES ovarian = test system: NCI/ADR-RES ovarian
OVCAR-5 ovarian = test system: OVCAR-5 ovarian
M14 melanoma = test system: M14 melanoma
ACHN renal = test system: ACHN renal
CCRF-CEM leukemia = test system: CCRF-CEM leukemia
K-562 leukemia = test system: K-562 leukemia
SR leukemia = test system: SR leukemia
MALME-3M melanoma = test system: MALME-3M melanoma
PC-3 prostate = test system: PC-3 prostate
NCI-H522 lung = test system: NCI-H522 lung
RPMI-8226 leukemia = test system: RPMI-8226 leukemia
HS 578T breast = test system: HS 578T breast

NC(=S)N/N=C1\NC(=O)/C(=C/c2ccc3c(c2)OCO3)S1
TGI (SF-539 CNS): > 100 µM | TGI (SW-620 colon): 88.8 µM | TGI (A498 renal): 30.3 µM | TGI (TK-10 renal): > 100 µM | TGI (MOLT-4 leukemia): 67.3 µM | TGI (COLO 205 colon): 71.3 µM | TGI (T-47D breast): 71.2 µM | TGI (HT29 colon): 82.9 µM | TGI (HCT-116 colon): 85 µM | TGI (OVCAR-3 ovarian): 45.7 µM | TGI (BT-549 breast): 84.7 µM | TGI (SF-295 CNS): > 100 µM | TGI (LOX IMVI melanoma): 85.2 µM | TGI (SN12C renal): > 100 µM | TGI (SK-OV-3 ovarian): > 100 µM | TGI (UO-31 renal): > 100 µM | TGI (RXF 393 renal): 52.3 µM | TGI (UACC-257 melanoma): 76.1 µM | TGI (SNB-19 CNS): 53.6 µM | TGI (NCI-H226 lung): 78.7 µM | TGI (786-0 renal): > 100 µM | TGI (HL-60(TB) leukemia): 63.3 µM | TGI (KM12 colon): 55.3 µM | TGI (MDA-MB-435): 78.1 µM | TGI (MCF7 breast): > 100 µM | TGI (HOP-62 NSCLC): 51.5 µM | TGI (IGROV1 ovarian): 49.4 µM | TGI (NCI-H460 lung): > 100 µM | TGI (CAKI-1 renal): 71.8 µM | TGI (HCC-2998 colon): > 100 µM | TGI (NCI-H23 lung): 54.4 µM | TGI (SK-MEL-28 melanoma): 78.7 µM | TGI (SK-MEL-2 melanoma): 90.1 µM | TGI (HCT-15 colon): 82.6 µM | TGI (SF-268 CNS): 97.3 µM | TGI (DU-145 prostate): 88 µM | TGI (OVCAR-4 ovarian): 75.8 µM | TGI (MDA-MB-231 breast): 77.1 µM | TGI (U251 CNS): 57.7 µM | TGI (MDA-N): 97.9 µM | TGI (SK-MEL-5 melanoma): 37.7 µM | TGI (HOP-92 NSCLC): 56.7 µM | TGI (EKVX NSCLC): 56 µM | TGI (SNB-75 CNS): 52.6 µM | TGI (A549 NSCLC): > 100 µM | TGI (OVCAR-8 ovarian): 78 µM | TGI (NCI/ADR-RES ovarian): 78.7 µM | TGI (OVCAR-5 ovarian): 73.1 µM | TGI (M14 melanoma): 68.3 µM | TGI (ACHN renal): > 100 µM

COc1ccc(OCc2ccc3nc(-c4ccccc4)c(Cl)nc3c2)cc1
TGI (SF-539 CNS): 42.3 µM | TGI (SW-620 colon): > 100 µM | TGI (A498 renal): 81.2 µM | TGI (TK-10 renal): 55.3 µM | TGI (MOLT-4 leukemia): > 100 µM | TGI (COLO 205 colon): 81.5 µM | TGI (T-47D breast): > 100 µM | TGI (CCRF-CEM leukemia): 45.4 µM | TGI (K-562 leukemia): > 100 µM | TGI (HT29 colon): > 100 µM | TGI (HCT-116 colon): > 100 µM | TGI (OVCAR-3 ovarian): > 100 µM | TGI (SF-295 CNS): 62.1 µM | TGI (LOX IMVI melanoma): > 100 µM | TGI (SN12C renal): > 100 µM | TGI (SR leukemia): > 100 µM | TGI (UO-31 renal): > 100 µM | TGI (UACC-257 melanoma): > 100 µM | TGI (SNB-19 CNS): 68.2 µM | TGI (786-0 renal): 32.6 µM | TGI (HL-60(TB) leukemia): 45.9 µM | TGI (MALME-3M melanoma): 37.3 µM | TGI (KM12 colon): > 100 µM | TGI (MDA-MB-435): > 100 µM | TGI (MCF7 breast): > 100 µM | TGI (HOP-62 NSCLC): 28.6 µM | TGI (IGROV1 ovarian): > 100 µM | TGI (NCI-H460 lung): > 100 µM | TGI (CAKI-1 renal): 51.4 µM | TGI (HCC-2998 colon): > 100 µM | TGI (NCI-H23 lung): 67.9 µM | TGI (SK-MEL-28 melanoma): > 100 µM | TGI (SK-MEL-2 melanoma): > 100 µM | TGI (HCT-15 colon): > 100 µM | TGI (SF-268 CNS): > 100 µM | TGI (DU-145 prostate): > 100 µM | TGI (OVCAR-4 ovarian): 95.4 µM | TGI (MDA-MB-231 breast): 37.9 µM | TGI (PC-3 prostate): > 100 µM | TGI (U251 CNS): 31.6 µM | TGI (MDA-N): > 100 µM | TGI (SK-MEL-5 melanoma): 25.8 µM | TGI (HOP-92 NSCLC): 46.7 µM | TGI (NCI-H522 lung): 40.5 µM | TGI (EKVX NSCLC): > 100 µM | TGI (RPMI-8226 leukemia): > 100 µM | TGI (SNB-75 CNS): > 100 µM | TGI (A549 NSCLC): > 100 µM | TGI (OVCAR-8 ovarian): > 100 µM | TGI (NCI/ADR-RES ovarian): > 100 µM | TGI (HS 578T breast): > 100 µM | TGI (OVCAR-5 ovarian): > 100 µM | TGI (M14 melanoma): > 100 µM | TGI (ACHN renal): > 100 µM
